pIC50: −log10 of the molar value.
Tests used:
[1] = test system: Anas sp.; experiment: Compound was tested for its antiviral activity against hepatitis B virus(DHBV) in duck fetal hepatocytes culture; type: functional, organism-based; settings: Hepatocyte
[2] = test system: Anas sp.; experiment: Compound was tested for its cytotoxicity against duck hepatitis B virus in duck fetal hepatocytes culture; type: functional; settings: Hepatocyte
[3] = test system: MT4; experiment: Compound was tested for its cytotoxicity against HIV-1 infected MT-4 cell lines; type: functional; settings: Homo sapiens
[4] = test system: MT4; experiment: Compound was tested to inhibit HIV-1 replication in MT-4 cell lines; value may range from 1 - 10; type: functional, cell-based; settings: Homo sapiens
[5] = test system: MT4; experiment: Compound was tested to inhibit HIV-1 replication in MT-4 cell lines; type: functional, cell-based; settings: Homo sapiens
[6] = test system: MT4; experiment: Compound was tested to inhibit HIV-1 replication in MT-4 cell lines; value may range from 5 - 15; type: functional, cell-based; settings: Homo sapiens

SMILES | pIC50 [1] | CC50 [2] [µM] | CC50 [3] [µM] | pIC50 [4] | pIC50 [5] | pIC50 [6]
Nc1nc(=O)n(CCN2C(=O)CSC2CO)cc1F (stereo not drawn) | 5.70 | 150 | 100 | 5.00 |  | 
Nc1ccn(CCN2C(=O)CSC2COC(=O)c2ccccc2)c(=O)n1 (stereo not drawn) |  |  | ~100 |  | ≤ 4.00 | 
Nc1ccn(CCN2C(=O)CSC2CO)c(=O)n1 (stereo not drawn) | 5.70 | 100 | ~300 |  | ≤ 3.52 | 
Cc1cn(CCN2C(=O)CSC2CO)c(=O)[nH]c1=O (stereo not drawn) | 5.70 | ≥ 200 | 100 |  |  | 4.82
Nc1nc(=O)n(CCN2C(=O)CSC2COC(=O)c2ccccc2)cc1F (stereo not drawn) |  |  | 100 | 5.00 |  | 
Nc1ncnc2c1ncn2CCN1C(=O)CSC1CO (stereo not drawn) | 5.70 | 200 | 100 | 5.00 |  | 
Nc1ccn(C2CS[C@H](CO)O2)c(=O)n1 (single isomer, unassigned) [LAMIVUDINE] | 7.00 | > 400 | 100 |  |  | 

— ChEMBL document CHEMBL1129129, “Modelisation, synthesis and antiviral evaluation of new 2,3-disubstituted thiazolidinone nucleoside analogues” (Bioorg Med Chem Lett, 1996)
